Structures can show the parent of a compound that is named as a salt.
Experiments:
A549 tumor cells = test: Antitumoral efficacy in subcutaneous xenograft A549 lung carcinoma model; assay type: in vivo, female athymic nude mice; settings: necropsy day 46; pioglitazone HCl 10 mg/kg, pamapimod 100 mg/kg, alone or combined, p.o. once daily days 22-45
Experimental: Evaluation of the Antitumoral Efficacy of Pamapimod and Pioglitazone Hydrochloride Alone and in Combination in a Subcutaneous Xenograft A549 Lung Carcinoma Model in Female Athymic Nude Mice In Vivo The study consisted of 4 experimental groups, each containing 10 female athymic nude mice after randomization (for details, see Table 1 below). On day 0, 2×10^6 A549 tumor cells in 100 μl PBS:Matrigel (1:1) were subcutaneously implanted into the left flank of all participating female athymic nude mice. In the following, primary tumor sizes were measured two times weekly (Monday and Friday) by calipering. […] For block randomization, a robust automated random number generation within individual blocks was used (MS-Excel 2003). On the following day (day 22), treatment was initiated in all groups (see Table 1 for details). Pioglitazone HCL (10 mg/kg) and pamapimod (100 mg/kg) were administered both alone (Groups 2 and 3, respectively) and in combination (Group 4) once daily p.o. on days 22-45. Animals of Group 1 were treated with 10 ml/kg Vehicle Control (0.9% NaCl, 0.5% Methyl Cellulose, 0.4% polysorbate 80, 0.9% benzyl alcohol, pH 4.8) once daily p.o. for the same time period. The study was terminated on day 46. All animals were sacrificed and necropsy was performed. Primary tumors were collected and wet weights and volumes determined. On day 0, 2×10^6 A549 tumor cells in 100 μl PBS:Matrigel (1:1) were subcutaneously implanted into the left flank of 54 female athymic nude mice. In the following, animal weights were measured three times weekly (Monday, Wednesday and Friday; balance: Mettler Toledo PB602-L). Primary tumor sizes were measured twice weekly by calipering (manual caliper, OMC Fontana). Tumor sizes were calculated according to the formula W^2×L/2 (L=length and W=the perpendicular width of the tumor, L>W). […] For block randomization, a robust automated random number generation within individual blocks was used (MS-Excel 2003). On the following day (day 22), treatment was initiated in all groups (see Table 1 for details). At necropsy, animals were weighed and killed by cervical dislocation. Primary tumors were collected and wet weights and volumes determined. Primary tumor volumes were analyzed using descriptive data analysis (Mean, SEM, Median and interquartile range). Statistical analysis of efficacy data was done using the Mann Whitney test and the unpaired t-test (in parentheses). All data analysis was performed using GraphPad Prism 5 from GraphPad Software, Inc., San Diego, USA.

CT26 wt_LLN cells = test: Antitumoral efficacy in orthotopic syngeneic CT26 wt colon carcinoma model; assay type: in vivo, female BALB/c mice; settings: necropsy day 20, pioglitazone HCl 25 mg/kg, pamapimod 100 mg/kg, p.o. once daily days 3-20; for antitumoral efficacy, primary tumor volume vs vehicle control / antitumoral efficacy, primary tumor weight vs vehicle control: alone or combined; for number of animals with metastases: of 12 animals per group, vehicle group six
Experimental: Evaluation of the Antitumoral Efficacy of Pamapimod and Pioglitazone Hydrochloride Alone and in Combination in an Orthotopic Syngeneic CT26 wt Colon Carcinoma Model in Female BALB/c Mice In Vivo The study consisted of 4 experimental groups, each containing 12 female BALB/c mice after randomization (for details, see Table 1 below). On day 0, 0.5×10^5 CT26 wt_LLN cells suspended in 15 μl PBS:Matrigel (1:2) were orthotopically implanted into the caecum of all participating animals. In the following period, primary tumor growth was monitored once weekly on days 2, 9, 15 and 20 using in vivo bioluminescence imaging. On day 2, 48 animals were randomized into 4 groups of 12 animals each according to the current in vivo bioluminescence imaging results (block of four after ranking). For block randomization, a robust automated random number generation within individual blocks was used (MS-Excel 2016). Thereby, detected luciferase signals served as randomization criteria. On the following day (day 3), treatment was initiated in all groups (see Table 1 for details). All treatments were performed at 10 ml/kg 1× daily p.o. on days 3-20. Pioglitazone HCL (25 mg/kg) and pamapimod (100 mg/kg) were administered both alone (Groups 2 and 3, respectively) and in combination (Group 4) once daily p.o. Animals of Group 1 were treated with 10 ml/kg Vehicle Control (0.9% NaCl, 0.5% Methyl Cellulose, 0.4% polysorbate 80, 0.9% benzyl alcohol, pH 4.8) once daily p.o. On day 20, the study was terminated due to tumor burden All animals were sacrificed and a necropsy performed. Primary tumors were collected and wet weights and volumes determined. On day 0, prior to surgery, and 24 h after surgery, all animals received the analgetic Meloxicam (Metacam®; 1 mg/kg) via subcutaneous injection. […] Thereby, cells were carefully injected in between caecum and mesentery. After the caecum had been repositioned, the skin was closed with wound clips. In the following, animal weights were measured three times weekly (Monday, Wednesday and Friday; balance: Mettler Toledo PB602-L). Primary tumor growth was monitored once weekly on days 2, 9, 15 and 20 using in vivo bioluminescence imaging. On day 2, 48 animals were randomized into 4 groups of 12 animals each according to the current in vivo bioluminescence imaging results (block of four after ranking). For block randomization, a robust automated random number generation within individual blocks was used (MS-Excel 2016). Thereby, detected luciferase signals served as randomization criteria. On the following day (day 3), treatment was initiated in all groups (see Table 2 for details). During the course of the study, tumor growth was monitored once weekly on days 2, 9, 15 and 20 using in vivo bioluminescence imaging. For this purpose, 150 mg/kg D-Luciferin were injected intraperitoneally (i.p.) into the mice 7 min before anesthetization. Light emission was measured 10 min post injection with a CCD-camera for 1-5 min using a NightOWL LB 981 bioluminescence imaging system (Berthold Technologies, Germany). On day 20, animals were killed by cervical dislocation. Primary tumors were collected, wet weights and volumes determined. Primary tumor volumes were analyzed using descriptive data analysis (Mean, SEM, Median and interquartile range). Statistical analysis of efficacy data was done using the Mann Whitney test and the unpaired t-test (in parentheses). All data analysis was performed using GraphPad Prism 5 from GraphPad Software, Inc., San Diego, USA.

| Structure (SMILES) | primary tumor volume vs vehicle control (A549 tumor cells) | primary tumor weight vs vehicle control (A549 tumor cells) | antitumoral efficacy, primary tumor volume vs vehicle control (CT26 wt_LLN cells) | antitumoral efficacy, primary tumor weight vs vehicle control (CT26 wt_LLN cells) | number of animals with metastases (CT26 wt_LLN cells) |
| --- | --- | --- | --- | --- | --- |
| Cn1c(=O)c(Oc2ccc(F)cc2F)cc2cnc(NC(CCO)CCO)nc21 [pamapimod, 6-(2,4-Difluorophenoxy)-2-[3-hydroxy-1-(2-hydroxyethyl)-propylamino]-8-methyl-8H-pyrido[2,3-d]pyrimidin-7-one] | noticeable decrease in both tumor volumes and tumor weights which was significant for tumor volume | nearly significant for tumor weight | significant in case of primary tumor volumes | just beyond significance in case of primary tumor weights | 2 animals |
| CCc1ccc(CCOc2ccc(CC3SC(=O)NC3=O)cc2)nc1 (stereo not shown) [pioglitazone HCl, pioglitazone hydrochloride] | noticeable reduction in both tumor volumes and tumor weights compared to control which approached statistical significance | noticeable reduction in both tumor volumes and tumor weights compared to control which approached statistical significance | no antitumoral efficacy | no antitumoral efficacy | four |

Reference: patent US11285155B2, “Pharmaceutical combinations for treating cancer” (SUPPORT-VENTURE GMBH, priority 2016, dated 2022)
